The text below walks through data of US20050164983A1, “Carboxyl-reduced derivatives of dermatan sulfate, preparation thereof, use thereof as a medicinal product and the pharmaceutical compositions containing them” (Aventis Pharma S.A., priority 2003, published 2005).

The target of experiment [1] is T1, bovine factor Xa (Bos taurus, UniProt P00743). The note with it: reference low-molecular weight heparin used for calibration; cited from earlier work.
The target in experiment [2] is aggrecanase. Description: Effect on the aggrecanase in synovial fluids or on preparations of recombinant ADAMTS protein (Agg1mut substrate, BC-3 ELISA). The note with it: for Estimated IC50: aggrecanase, substrate conversion. Format: biochemical. As to the method:
Effect of the carboxyl-reduced derivatives according to the invention on the aggrecanase in synovial fluids or on preparations of recombinant ADAMTS protein.
The analysis is carried out on 96-well plates. Before the analysis, serial dilutions of the assay compounds are prepared in an aqueous solution.
In each well, a fixed volume of synovial fluid or aggrecanase activity generating a known increase, between 1.0 and 1.4 absorbance units (405 nm), under the conditions of the analysis, is mixed with 3 μl of solution of compound from the respective dilution step. Dulbecco's modified Eagle's medium (DMEM) is added to each well to give a final volume of 300 μl. The plate is then incubated for 1 hour at 37° C. in a carbon dioxide atmosphere.
Preparation of the analytical plate:
In a first step, the microplate is coated with 100 μl per well of a commercial goat anti-mouse IgG antibody for 1 hour at ambient temperature (5 μg/ml in a phosphate buffered saline solution, pH 7.4 [PBS buffer]). After washing with the PBS buffer containing 0.1% of Tween-20 (washing buffer), the wells are blocked by means of a step consisting of a one hour incubation with 100 μl per well of 5% bovine serum albumin in a PBS buffer containing 0.05% of Tween-20.
After another rinse of the analytical plate with the washing buffer, the complete set of mixtures originating from the preceding digestion is transferred to this plate, well by well, and incubated at ambient temperature for one hour. The plate is again washed as above. Next, 100 μl of the second antibody (anti-human IgG antibody labeled with peroxidase, 1:1000 in PBS containing 0.5% of BSA and 0.05% of Tween-20) are added to each well, with subsequent incubation at ambient temperature again for one hour. […] The measurement is carried out by means of the screen mode using detection at 405 nm relative to a reference filter (620 nm) with automatic readings at 5-second intervals. The development is stopped as soon as the maximum signal (405 nm) in the absorbance range of 1.0 to 1.4 is reached.

Experiment [3] concerns the target T1, bovine factor Xa. Put plainly: Inhibition of factor Xa (chromogenic substrate S-2765, with human antithrombin III). Format: biochemical. The conditions noted are these: calibrated against Enoxaparin. The method, then: For the calibration, a standard sample of low molecular weight heparin (Enoxaparin) was used as reference.
The serial dilutions of the assay compound are prepared in a 0.046 M Tris buffer, pH 8.4, containing 0.15 M NaCl, 0.007 M EDTA, 0.1% of Tween 80 and 0.12 IU/ml of human antithrombin III. The samples of 50 μl of the respective dilutions are incubated with 50 μl of bovine factor Xa (13.6 U/ml) at 37° C. for 80 seconds. Next, 50 μl of chromogenic substrate, 1.1 mM S-2765, are added. The absorbance at 405 nm is measured in a photometer. The activity of the deblocked factor Xa is indicated by the emission of p-nitroaniline from the substrate.

In experiment [4] the target is T2, human neutrophil elastase (Homo sapiens, UniProt P08246).
T2 construct: purchased Sigma E8140
T2 sequence (P08246 30-267): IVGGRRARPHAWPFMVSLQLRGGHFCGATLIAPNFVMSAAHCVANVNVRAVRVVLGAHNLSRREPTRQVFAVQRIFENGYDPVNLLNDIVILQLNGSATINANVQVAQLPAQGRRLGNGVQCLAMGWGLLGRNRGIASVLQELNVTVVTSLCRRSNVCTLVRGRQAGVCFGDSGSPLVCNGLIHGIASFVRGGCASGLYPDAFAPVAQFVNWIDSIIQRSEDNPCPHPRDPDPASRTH
Put plainly: Inhibitory activity on human neutrophil elastase. It is filed as biochemical. The conditions noted are these: 15 min incubation. As to the method:
Effects of the Carboxyl-reduced Derivatives According to the Invention on Human Neutrophil Elastase
A commercially available enzyme (for example, human neutrophil elastase, Sigma No. E8140) is reconstituted in aliquots of 0.1 mg per vial with 0.276 ml of 50 mM sodium acetate buffer, pH 5.5, containing 200 mM NaCl (stock solution of the enzyme); 11 μl of this stock solution are diluted with 1.1 ml of the above HEPES buffer (enzyme assay solution).
The substrate solution is prepared by dissolving 118 mg of methoxy-succinyl-L-Ala-L-Ala-L-Pro-L-Val-p-nitro-anilide in 1 ml of DMSO (stock solution, for example Sigma No. M4765). In view of the application in the analysis, 9 μl of stock solution are then diluted in 1.19 ml of H2O.
Serial dilutions of the assay compounds are prepared in 100 mM of HEPES buffer containing 500 mM of NaCl. The analysis is carried out on colorless 96-well polystyrene microplates (for example, Corning Costar, No. 3695.
10 μl of enzyme assay solution are mixed with 10 μl of the respective solution of diluted compound and 10 μl of the substrate solution. After incubation for 15 min, the cleavage of the substrate is read as increase in absorbance at 405 nm.

[5] abbreviates: conc. of glycosaminoglycan 0.0001 μg/ml.
[6] abbreviates: conc. of glycosaminoglycan 0.001 μg/ml.
Where [7] appears, read: conc. of glycosaminoglycan 0.01 μg/ml.
Where [8] appears, read: conc. of glycosaminoglycan 0.1 μg/ml.

T1 sequence (P01008 33-464 partner): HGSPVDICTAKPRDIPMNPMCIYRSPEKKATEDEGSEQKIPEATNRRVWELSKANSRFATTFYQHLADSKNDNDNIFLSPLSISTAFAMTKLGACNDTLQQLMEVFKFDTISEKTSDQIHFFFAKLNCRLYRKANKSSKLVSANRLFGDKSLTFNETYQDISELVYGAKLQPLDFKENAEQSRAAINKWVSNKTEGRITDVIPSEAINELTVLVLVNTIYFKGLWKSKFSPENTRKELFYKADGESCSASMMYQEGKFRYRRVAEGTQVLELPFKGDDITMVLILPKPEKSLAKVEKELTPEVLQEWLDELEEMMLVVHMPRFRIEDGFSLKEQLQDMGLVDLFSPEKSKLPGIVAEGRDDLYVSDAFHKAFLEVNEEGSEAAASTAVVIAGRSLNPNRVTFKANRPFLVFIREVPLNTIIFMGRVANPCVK
T1 sequence (P00743 234-492 limits assumed): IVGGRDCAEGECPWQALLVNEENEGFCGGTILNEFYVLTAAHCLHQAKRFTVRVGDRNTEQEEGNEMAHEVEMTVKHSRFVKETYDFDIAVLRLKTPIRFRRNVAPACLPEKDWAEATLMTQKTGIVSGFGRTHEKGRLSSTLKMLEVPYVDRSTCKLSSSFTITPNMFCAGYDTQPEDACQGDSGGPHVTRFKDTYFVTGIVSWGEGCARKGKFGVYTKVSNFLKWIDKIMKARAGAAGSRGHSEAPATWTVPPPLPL

On to Enoxaparin, for which the “Anti-factor Xa activity of the reference standard” value in experiment [1] is 100 U/mg.

In the case of “Persulfated, Carboxyl-reduced Dermatan Sulfate Sodium Salt [Example 4]”, in experiment [2], the “Estimated IC50” value is 0.007 mg/L. Also, the “% Conversion” value is 100.0% in experiment [2] (setting [5]), 93.4% in experiment [2] (setting [6]), 27.4% in experiment [2] (setting [7]) and 18.0% in experiment [2] (setting [8]). The “Anti-factor Xa activity” value in experiment [3] is on record as 1.1 U/mg. In experiment [4], the IC50 was found to be 0.11 mg/L.

As to “Carboxyl-reduced Dermatan Sulfate Sodium Salt [Example 1]”, the “Estimated IC50” value in experiment [2] was around 7.9 mg/L.

As to “6-O-sulfated, Carboxyl-reduced Dermatan Sulfate Sodium Salt [Example 5]”, the “Estimated IC50” value in experiment [2] was 0.26 mg/L. Further, the “% Conversion” value in experiment [2] (setting [5]) is 100.0%; in experiment [2] (setting [6]), 96.4%; in experiment [2] (setting [7]), 84.3%; in experiment [2] (setting [8]), 70.2%; in experiment [2] (conc. of glycosaminoglycan 1.0 μg/ml), 36.1%. In addition, in experiment [3], the “Anti-factor Xa activity” value is 0 U/mg. This substance yielded a half-inhibitory concentration (IC50) in experiment [4] of 10.0 mg/L.

Broadly, the IC50 is the point on the concentration scale where inhibition reaches its midpoint.
